Assay results as given in patent publication US5525626A (priority 1989, dated 1996).

What was measured:
Test in all cases: 3H-thymidine assay
Assay type in all cases: cell-based
[1] = test system: Tp 242 MG glioblastoma cells; details: Homo sapiens
[2] = test system: Tp 483 MG glioblastoma cells
[3] = test system: MCF-7 breast cancer cells; details: Homo sapiens, MCF7
Summary of the method: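 Antiproliferative activity against human MCF-7 breast cancer cells was measured by 3H-thymidine incorporation. Cells (10^4 per well) were seeded in 24-well plates, grown about 48 hours to half-confluence, then given medium containing the test substance. After two ice-cold PBS washes, high-molecular-weight 3H-radioactivity was precipitated with 5% trichloroacetic acid for one hour at 4° C, solubilized in 0.3M NaOH and counted; incorporation was compared with untreated cells.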

CAKI-1 cells = details: Homo sapiens, CAKI-1
Summary of the method: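 CAKI-1 human tumor cells were seeded at 10^4 cells per well in 24-well plates and grown about 48 hours until half-confluent. The medium was then swapped for one containing the test substance. Cells were washed twice in ice-cold PBS, and macromolecular 3H-radioactivity was precipitated with 5% trichloroacetic acid for one hour at 4° C.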

At T 20 = details: Mus musculus, AtT20
Summary of the method: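 Proliferation of AtT20 tumor cells was assessed by 3H-thymidine incorporation. 10^4 cells per well were seeded in 24-well plates and grown about 48 hours to half-confluence, then given medium with the active substance. Cells were washed twice in ice-cold PBS, high-molecular-weight 3H-radioactivity was precipitated with 5% trichloroacetic acid for one hour at 4° C, solubilized in 0.3M NaOH and counted.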

K-562 leukemic cells = details: Homo sapiens, K562
Summary of the method: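 Antiproliferative activity against human K562 leukemia cells was measured by 3H-thymidine incorporation. Cells were seeded at 10^4 per well in 24-well plates and grown about 48 hours to half-confluence, then given medium containing the active substance. After two ice-cold PBS washes, macromolecular 3H was precipitated with 5% trichloroacetic acid for one hour at 4° C, dissolved in 0.3M NaOH and counted.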

CAKI-2 cells = details: Homo sapiens, CAKI-2
Summary of the method: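 Cells were seeded in 24-well plates at 10^4 cells per well and grown about 48 hours until half-confluent. The medium was then replaced with medium containing the test substance. After two washes in ice-cold PBS, acid-insoluble 3H label was precipitated with 5% trichloroacetic acid for one hour at 4° C. Label was dissolved in 0.3M NaOH and counted, and thymidine incorporation was compared with untreated cells.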

G-361 melanoma cells = details: Homo sapiens, G-361
HCV cells = test system: HCV cells
[4] = 1 μM/ml, read-out: 3H-thymidine insertion (%) of control
[5] = 2 μM/ml, read-out: 3H-thymidine insertion (%) of control
[6] = 4 μM/ml, read-out: 3H-thymidine insertion (%) of control
[7] = 8 μM/ml, read-out: 3H-thymidine insertion (%) of control
[8] = 16 μM/ml, read-out: 3H-thymidine insertion (%) of control
[9] = 25 μM/ml, read-out: 3H-thymidine insertion (%) of control
[10] = 50 μM/ml, read-out: 3H-thymidine insertion (%) of control
[11] = 100 μM/ml, read-out: 3H-thymidine insertion (%) of control
[12] = 250 μM/ml, read-out: 3H-thymidine insertion (%) of control
[13] = 500 μM/ml, read-out: 3H-thymidine insertion (%) of control
[14] = Table 4, read-out: active substance concentration at which 3H-thymidine insertion was 50% inhibited
[15] = 1 μM/ml, read-out: 3H-thymidine tracer (%) of control
[16] = 2 μM/ml, read-out: 3H-thymidine tracer (%) of control
[17] = 4 μM/ml, read-out: 3H-thymidine tracer (%) of control
[18] = 8 μM/ml, read-out: 3H-thymidine tracer (%) of control
[19] = 16 μM/ml, read-out: 3H-thymidine tracer (%) of control
[20] = 25 μM/ml, read-out: 3H-thymidine tracer (%) of control
[21] = 50 μM/ml, read-out: 3H-thymidine tracer (%) of control
[22] = 100 μM/ml, read-out: 3H-thymidine tracer (%) of control
[23] = 250 μM/ml, read-out: 3H-thymidine tracer (%) of control
[24] = 500 μM/ml, read-out: 3H-thymidine tracer (%) of control
[25] = Table 4, *: maximum usable dosage, no 50% inhibition, read-out: active substance concentration at which 3H-thymidine insertion was 50% inhibited
[26] = 150 μM/ml, read-out: 3H-thymidine tracer (%) of control

- IC50 [1, 14]: 500 µM
- IC50 [2, 14]: 500 µM
- IC50 [3, 25]: > 500 µM
- IC50 (CAKI-1 cells; [25]): > 500 µM
- IC50 (At T 20; [14]): 250 µM
- IC50 (K-562 leukemic cells; [14]): 175 µM
- IC50 (CAKI-2 cells; [25]): > 500 µM
- IC50 (G-361 melanoma cells; [25]): > 500 µM
- IC50 (HCV cells; [25]): > 500 µM
SMILES: COc1cc2ccc(=O)oc2cc1O [Scopoletin, 6-methoxy-7-hydroxy-1,2-benzopyrone]
- activity at 1 µM [1, 4]: 99%
- activity at 2 µM [1, 5]: 93%
- activity at 4 µM [1, 6]: 85%
- activity at 8 µM [1, 7]: 87%
- activity at 16 µM [1, 8]: 84%
- activity at 25 µM [1, 9]: 79%
- activity at 50 µM [1, 10]: 74%
- activity at 100 µM [1, 11]: 61%
- activity at 250 µM [1, 12]: 52%
- activity at 500 µM [1, 13]: 48%
- activity at 1 µM [2, 4]: 100%
- activity at 2 µM [2, 5]: 95%
- activity at 4 µM [2, 6]: 89%
- activity at 8 µM [2, 7]: 86%
- activity at 16 µM [2, 8]: 78%
- activity at 25 µM [2, 9]: 72%
- activity at 50 µM [2, 10]: 67%
- activity at 100 µM [2, 11]: 63%
- activity at 250 µM [2, 12]: 54%
- activity at 500 µM [2, 13]: 50%
- activity at 1 µM [3, 15]: 100%
- activity at 2 µM [3, 16]: 97%
- activity at 4 µM [3, 17]: 94%
- activity at 8 µM [3, 18]: 86%
- activity at 16 µM [3, 19]: 81%
- activity at 25 µM [3, 20]: 76%
- activity at 50 µM [3, 21]: 73%
- activity at 100 µM [3, 22]: 69%
- activity at 250 µM [3, 23]: 62%
- activity at 500 µM [3, 24]: 54%
- activity at 1 µM (CAKI-1 cells; [15]): 100%
- activity at 2 µM (CAKI-1 cells; [16]): 98%
- activity at 4 µM (CAKI-1 cells; [17]): 87%
- activity at 8 µM (CAKI-1 cells; [18]): 81%
- activity at 16 µM (CAKI-1 cells; [19]): 80%
- activity at 25 µM (CAKI-1 cells; [20]): 73%
- activity at 50 µM (CAKI-1 cells; [21]): 69%
- activity at 100 µM (CAKI-1 cells; [22]): 67%
- activity at 150 µM (CAKI-1 cells; [26]): 62%
- activity at 500 µM (CAKI-1 cells; [24]): 55%
- activity at 1 µM (At T 20; [15]): 98%
- activity at 2 µM (At T 20; [16]): 94%
- activity at 4 µM (At T 20; [17]): 89%
- activity at 8 µM (At T 20; [18]): 84%
- activity at 16 µM (At T 20; [19]): 76%
- activity at 25 µM (At T 20; [20]): 68%
- activity at 50 µM (At T 20; [21]): 62%
- activity at 100 µM (At T 20; [22]): 57%
- activity at 250 µM (At T 20; [23]): 49%
- activity at 500 µM (At T 20; [24]): 43%
- activity at 1 µM (K-562 leukemic cells; [15]): 100%
- activity at 2 µM (K-562 leukemic cells; [16]): 97%
- activity at 4 µM (K-562 leukemic cells; [17]): 90%
- activity at 8 µM (K-562 leukemic cells; [18]): 85%
- activity at 16 µM (K-562 leukemic cells; [19]): 82%
- activity at 25 µM (K-562 leukemic cells; [20]): 71%
- activity at 50 µM (K-562 leukemic cells; [21]): 66%
- activity at 100 µM (K-562 leukemic cells; [22]): 52%
- activity at 250 µM (K-562 leukemic cells; [23]): 47%
- activity at 500 µM (K-562 leukemic cells; [24]): 44%
- activity at 1 µM (CAKI-2 cells; [15]): 99%
- activity at 2 µM (CAKI-2 cells; [16]): 96%
- activity at 4 µM (CAKI-2 cells; [17]): 84%
- activity at 8 µM (CAKI-2 cells; [18]): 80%
- activity at 16 µM (CAKI-2 cells; [19]): 76%
- activity at 25 µM (CAKI-2 cells; [20]): 71%
- activity at 50 µM (CAKI-2 cells; [21]): 66%
- activity at 100 µM (CAKI-2 cells; [22]): 61%
- activity at 150 µM (CAKI-2 cells; [26]): 59%
- activity at 500 µM (CAKI-2 cells; [24]): 53%
- activity at 1 µM (G-361 melanoma cells; [15]): 100%
- activity at 2 µM (G-361 melanoma cells; [16]): 98%
- activity at 4 µM (G-361 melanoma cells; [17]): 96%
- activity at 8 µM (G-361 melanoma cells; [18]): 88%
- activity at 25 µM (G-361 melanoma cells; [20]): 85%
- activity at 50 µM (G-361 melanoma cells; [21]): 85%
- activity at 100 µM (G-361 melanoma cells; [22]): 76%
- activity at 250 µM (G-361 melanoma cells; [23]): 71%
- activity at 500 µM (G-361 melanoma cells; [24]): 67%
- activity at 1 µM (HCV cells; [15]): 97%
- activity at 2 µM (HCV cells; [16]): 90%
- activity at 4 µM (HCV cells; [17]): 86%
- activity at 8 µM (HCV cells; [18]): 81%
- activity at 16 µM (HCV cells; [19]): 77%
- activity at 25 µM (HCV cells; [20]): 69%
- activity at 50 µM (HCV cells; [21]): 65%
- activity at 250 µM (HCV cells; [23]): 60%
- activity at 500 µM (HCV cells; [24]): 57%
